The record followed here is patent US7417053B2, “Pyrazolo[1,5-a]pyridine derivatives or pharmaceutically acceptable salts thereof” (Teijin Pharma Limited, priority 2005, dated 2008).

SMILES strings stand for the structures. Structures can show the parent of a compound that is named as a salt.

Sequence of recombinant human MAPKAP-K2 (P49137 whole entry): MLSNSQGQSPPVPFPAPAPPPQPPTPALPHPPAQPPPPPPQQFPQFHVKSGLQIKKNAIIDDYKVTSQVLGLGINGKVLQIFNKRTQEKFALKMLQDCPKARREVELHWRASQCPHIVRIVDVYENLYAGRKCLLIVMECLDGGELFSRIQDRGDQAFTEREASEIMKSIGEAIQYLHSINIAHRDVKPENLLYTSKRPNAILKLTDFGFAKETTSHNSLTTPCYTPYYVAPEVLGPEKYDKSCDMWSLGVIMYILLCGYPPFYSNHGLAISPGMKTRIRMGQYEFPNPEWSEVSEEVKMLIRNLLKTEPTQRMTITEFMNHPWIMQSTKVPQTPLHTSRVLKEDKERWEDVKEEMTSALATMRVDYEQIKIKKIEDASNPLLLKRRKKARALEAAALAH

The target of the assay is recombinant human MAPKAP-K2 (Homo sapiens, UniProt P49137). Put plainly: Inhibitory activity against MAPKAP-K2 enzyme (33P-ATP peptide phosphorylation). The assay is classed as biochemical. The settings on record: recombinant human MAPKAP-K2, ATP 20 μmol/L solution, room temperature 30 min; read-out: Activity Strength (MAPKAP-K2 IC50 value). How it is done:
General Measurement Method for Determining the Inhibitory Activity Against MAPKAP-K2 enzyme
(Preparation of Solutions of Compounds)
Each compound was dissolved in DMSO to prepare a solution with a concentration of 20 mmol/L and this solution was stored at −20° C. This stock solution was diluted with DMSO successively to prepare solutions with 200-fold concentrations of a necessary range. These solutions were further diluted with water at a ratio of 1:20 to prepare solutions with 10-fold concentrations of a necessary range. Each of these solutions (5 μL) was used for each reaction in 50 μL-scale. Through the dilution series of all compounds, the final DMSO concentration was kept at 0.5%. Conventional tests for the compounds were carried out at a final concentration range from 100 μmol/L to 0.03 μmol/L. but in some cases, tests were carried out at lower concentrations, depending on activity.
(Measurements of MAPKAP-K2 Enzyme Activities)
To a 5% DMSO aqueous solution (5 μL) of a test compound, a solution (25 μL) containing a peptide substrate [peptide substrate 60 μmol/L, ATP 20 μmol/L, Tris buffer 60 mmol/L (pH 7.5), EGTA 0.2 mmol/L, β-mercaptoethanol 0.2%, magnesium acetate 20 mmol/L, [γ-33P]ATP 0.1 μCi (specific radioactivity ca. 110 TBq/mmol)] was added. The reaction was initiated by adding a solution (20 μL) containing MAPKAP-K2 enzyme [recombinant human MAPKAP-K2 10 mU, Tris buffer […] (pH 7.5), EGTA 0.1 mmol/L, β-mercaptoethanol 0.1%, BSA 0.1%]. After the reaction was carried out at room temperature for 30 min, 200 mmol/L phosphoric acid (50 μL) was added to quench the reaction, and 90 μL of the reaction mixture was adsorbed on a multiscreen PH plate (Millipore). The plate was washed with 100 mmol/L phosphoric acid. After the plate was dried, 30 μL of MicroScint-O (Perkin-Elmer) was added, and the count per minute was measured on a scintillation counter to determine the inhibitory activity. The peptide substrate was Lys-Lys-Leu-Asn-Arg-Thr-Leu-Ser-Val-Ala.
• % Reference=(X−B)/(Tot−B)×100 • % Inhibition=100−% Reference • X represents count per minute of the well with a test compound applied. • B represents count per minute of the well without the enzyme. • Tot represents count per minute of the well with only DMSO solvent and no test compound applied. (Calculation of MAPKAP-K2 Inhibitory Activity) • IC50 value represents a concentration of compound at which 50% inhibition is observed.
By IC50 is commonly meant the concentration needed to halve the response being measured. In the case of `CCOc1ccc(Nc2c(C)c(N[C@H]3CCCNC3)c(C#N)c3ccnn23)cc1` [Compound 85, 5-[(3S)-3-piperidylamino]-7-(4-ethoxyphenylamino)-6-methylpyrazolo[1,5-a]pyridine-4-carbonitrile], the concentration for half-maximal inhibition (IC50) is less than 200 nM.

Take `CCOc1ccc(Nc2c(C)c(N[C@H]3CC[C@H](NCCc4ccccc4)CC3)c(C#N)c3ccnn23)cc1` [Compound 125, 7-[(4-Ethoxyphenyl)amino]-6-methyl-5-(trans-{4-[(2-phenylethyl)amino]cyclohexyl}amino]pyrazolo[1,5-a]pyridine-4-carbonitrile trifluoroacetate salt]: the concentration for half-maximal inhibition (IC50) was 200 to 1000 nM.

Take `CCOc1ccc(Nc2c(C)c(NCCCN)c(C#N)c3ccnn23)cc1` [Compound 107, 5-[(3-Aminopropyl)amino]-7-[(4-ethoxyphenyl)amino]-6-methylpyrazolo[1,5-a]pyridine-4-carbonitrile trifluoroacetate salt]: the half-inhibitory concentration (IC50) was 200 to 1000 nM.

For `Cc1c(N[C@H]2CCCNC2)c(C#N)c2ccnn2c1Nc1ccccc1` [Compound 111, 5-[((3S)-(3-Piperidyl))amino]-6-methyl-7-(phenylamino)pyrazolo[1,5-a]pyridine-4-carbonitrile trifluoroacetate salt], the IC50 was less than 200 nM.

For the compound `N#Cc1c(N[C@H]2CC[C@H](N)CC2)cc(Nc2ccc(-c3ccccc3)cc2)n2nccc12` [Compound 97, 5-(trans-4-Aminocyclohexylamino)-7-(4-biphenylylamino)pyrazolo[1,5-a]pyridine-4-carbonitrile trifluoroacetate salt], the IC50 is less than 200 nM.

Consider `CCOc1ccc(Nc2cc(N[C@H]3CCCNC3)c(C#N)c3ccnn23)cc1` [Compound 92, 5-[(3S)-3-Piperidylamino]-7-(4-ethoxyphenylamino)pyrazolo[1,5-a]pyridine-4-carbonitrile trifluoroacetate salt], for which the half-inhibitory concentration (IC50) lay within 200 to 1000 nM.

Turning to `CCCc1c(N[C@H]2CCCNC2)c(C#N)c2ccnn2c1Nc1ccc(OCC)cc1` [Compound 121, 5-[(3S)-3-Piperidylamino]-7-(4-ethoxyphenylamino)-6-propylpyrazolo[1,5-a]pyridine-4-carbonitrile], the IC50 is less than 200 nM.

Turning to `CCOc1ccc(Nc2c(C)c(N[C@H]3CC[C@H](NCCCc4ccccc4)CC3)c(C#N)c3ccnn23)cc1` [Compound 116, 7-[(4-Ethoxyphenyl)amino]-6-methyl-5-({trans-4-[(3-phenylpropyl)amino]cyclohexyl}amino)pyrazolo[1,5-a]pyridine-4-carbonitrile trifluoroacetate salt], the IC50 lay within 200 to 1000 nM.

In the case of `CCOc1ccc(Nc2c(C)c(NCCN)c(C#N)c3ccnn23)cc1` [Compound 106, 5-[(2-Aminoethyl)amino]-7-[(4-ethoxyphenyl)amino]-6-methylpyrazolo[1,5-a]pyridine-4-carbonitrile trifluoroacetate salt], the IC50 lay in the range of 200 to 1000 nM.

Consider `CCOc1ccc(Nc2c(C)c(NCC3CCNC3)c(C#N)c3ccnn23)cc1` (centres unmarked) [Compound 112, 7-[(4-Ethoxyphenyl)amino]-6-methyl-5-[(pyrrolidin-3-ylmethyl)amino]pyarzolo[1,5-a]pyridine-4-carbonitrile trifluoroacetate salt], for which the IC50 was in the range of 1000 to 10000 nM.

Regarding `N#Cc1c(N[C@H]2CCCNC2)cc(Nc2ccccc2Cl)n2nccc12` [Compound 93, 5-[(3S)-3-Piperidylamino]-7-(2-chlorophenylamino)pyrazolo[1,5-a]pyridine-4-carbonitrile trifluoroacetate salt], the half-maximal inhibitory concentration (IC50) was 200 to 1000 nM.
